In ChEMBL document CHEMBL1201862, “PubChem BioAssay data set” (2004):
The source made the active and inactive calls.

Legend:
Orexin receptor type 2 [1] = target: T1, Orexin receptor type 2 (Homo sapiens, UniProt O43614); experiment: Counterscreen assay for antagonists of the orexin 1 receptor (OX1R; HCRTR1): Fluorescence-based cell-based dose response assay for antagonists of the orexin 2 receptor (OX2R; HCRTR2), run by assay provider.; type: functional
CHO-K1 = experiment: Counterscreen for antagonists of the orexin 1 receptor (OX1R; HCRTR1): Homogeneous time resolved fluorescence (HTRF)-based cell-based dose response assay to identify antagonists of the parental CHO-K1 cell line. [Related pubchem assays (depositor defined):AID434989, AID435008, AID463079, AID485270, AID492963, AID492964, AID492965, AID493232, AID504699, AID504701]; type: functional; conditions: Cricetulus griseus
[2] = Counterscreen for antagonists of the orexin 1 receptor (OX1R; HCRTR1): Fluorescence-based cell-based high throughput dose response assay to identify antagonists of the parental CHO cell line. [Related pubchem assays (depositor defined):AID434989, AID435008, AID463079, AID485270, AID492963, AID492964, AID492965, AID493232, AID504699, AID504701]; type: functional
[3] = target: T2, Orexin/Hypocretin receptor type 1 (Homo sapiens, UniProt O43613); experiment: Homogeneous Time Resolved Fluorescence (HTRF)-based cell-based high throughput dose response assay for antagonists of the orexin 1 receptor (OX1R; HCRTR1). [Related pubchem assays (depositor defined):AID434989, AID435008, AID463079, AID485270, AID492963, AID492964, AID492965, AID493232, AID504717, AID504718]; type: functional
Orexin receptor type 2 [4] = target: T1, Orexin receptor type 2; experiment: Counterscreen assay for antagonists of the orexin 1 receptor (OX1R; HCRTR1): Homogeneous Time Resolved Fluorescence (HTRF)-based cell-based dose response assay for antagonists of the orexin 2 receptor (OX2R; HCRTR2), run by assay provider.; type: functional
[5] = target: T2, Orexin/Hypocretin receptor type 1; experiment: Fluorescence-based cell-based high throughput dose response assay for antagonists of the orexin 1 receptor (OX1R; HCRTR1). [Related pubchem assays (depositor defined):AID434989, AID435008, AID463079, AID485270, AID492963, AID492964, AID492965, AID493232, AID504717, AID504718]; type: functional
[6] = target: T3, High affinity choline transporter 1 (Homo sapiens, UniProt Q9GZV3); experiment: CHT activators, dose response, cell-based, 10-point CRC, membrane potential dye (AID 602376); type: functional
T3 sequence (Q9GZV3 whole entry): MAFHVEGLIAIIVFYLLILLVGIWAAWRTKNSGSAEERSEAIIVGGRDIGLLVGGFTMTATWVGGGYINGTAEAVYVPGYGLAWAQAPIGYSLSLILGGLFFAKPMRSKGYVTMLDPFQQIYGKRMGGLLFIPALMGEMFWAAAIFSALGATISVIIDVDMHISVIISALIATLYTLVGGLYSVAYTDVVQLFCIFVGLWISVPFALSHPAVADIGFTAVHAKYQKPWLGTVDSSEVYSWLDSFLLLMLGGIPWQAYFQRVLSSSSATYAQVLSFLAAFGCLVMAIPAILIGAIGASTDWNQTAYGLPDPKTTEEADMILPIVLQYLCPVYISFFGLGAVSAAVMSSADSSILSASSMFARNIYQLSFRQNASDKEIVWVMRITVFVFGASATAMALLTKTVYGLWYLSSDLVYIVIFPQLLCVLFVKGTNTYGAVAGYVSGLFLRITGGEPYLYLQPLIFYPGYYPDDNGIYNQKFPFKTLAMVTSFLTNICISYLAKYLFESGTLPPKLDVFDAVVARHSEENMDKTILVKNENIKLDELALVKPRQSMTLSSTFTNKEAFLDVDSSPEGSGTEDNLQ

Streptokinase A = target: T4, Streptokinase A (Streptococcus pyogenes serotype M1, UniProt P10520); experiment: S. pyogenes streptokinase expression inhibitors, potency, dose response, plasminogen activation absorbance, OD405 (AID 1914); type: functional, Streptococcus pyogenes M1 GAS;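 further: secreted streptokinase activity via plasminogen activation per viability signal from cell pellet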
T4 sequence (P10520 whole entry): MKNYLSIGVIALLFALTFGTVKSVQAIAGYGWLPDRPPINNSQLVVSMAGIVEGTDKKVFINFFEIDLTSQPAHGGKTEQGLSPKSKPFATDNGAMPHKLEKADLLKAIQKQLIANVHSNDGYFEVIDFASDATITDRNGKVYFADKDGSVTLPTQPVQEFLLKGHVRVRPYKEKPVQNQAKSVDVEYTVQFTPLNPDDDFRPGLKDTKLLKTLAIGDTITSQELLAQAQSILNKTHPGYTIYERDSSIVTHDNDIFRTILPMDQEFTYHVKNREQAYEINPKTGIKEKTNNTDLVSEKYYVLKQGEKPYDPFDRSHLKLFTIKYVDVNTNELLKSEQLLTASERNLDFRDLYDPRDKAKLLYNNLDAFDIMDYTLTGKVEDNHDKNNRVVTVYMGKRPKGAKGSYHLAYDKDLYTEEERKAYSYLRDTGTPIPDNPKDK

[7] = Luminescence Cell-Based Dose Retest to Confirm Inhibitors of Cancer Stem Cells. [Related pubchem assays (depositor defined):AID2717, AID2721]; type: functional; conditions: Homo sapiens
[8] = target: T5, Glycogen synthase kinase-3 beta (Homo sapiens, UniProt P49841); experiment: Inhibition of Human GSK-3 beta Activity Measured in Biochemical System Using Microfluidics - 2063-05_Inhibitor_Dose_DryPowder_Activity_Set2. [Related pubchem assays (depositor defined):AID2709]
[9] = system: Streptococcus sp. 'group A'; experiment: growth inhibition of control SK(-) GAS strain, dose response, counter-screen for streptokinase expression inhibitor project, luminescence, kanamycin, BacTiterGlo, confirmation (AID 1900); type: functional, organism-based
[10] = target: Cyclin-dependent kinase 5/CDK5 activator 1 (Homo sapiens, UniProt Q00535); experiment: CDK5-p25 kinase inhibitors, specificity check, dose response, selectivity assay for GSK-3 alpha inhibitor project, biochemical, microfluidic mobility shift, dry powder (AID 588430)
Streptococcus = experiment: Group A Streptococcus viability loss, dose response, counter-screen for streptokinase expression inhibitor project, luminescence, BacTiterGlo (AID 1915); type: functional, organism-based;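 further: potency for reduction of bacterial viability or growth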
[11] = target: Glycogen synthase kinase-3 alpha (Homo sapiens, UniProt P49840); experiment: Inhibition of Human GSK-3 alpha Activity Measured in Biochemical System Using Microfluidics - 2063-06_Inhibitor_Dose_DryPowder_Activity_Set2. [Related pubchem assays (depositor defined):AID2709]
[12] = target: Cell division cycle 7-related protein kinase (Homo sapiens, UniProt O00311); type: functional;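 further: value obtained from a kinome-wide kinase panel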
[13] = target: T5, Glycogen synthase kinase-3 beta; type: functional
[14] = target: MAP kinase-interacting serine/threonine-protein kinase 2 (Homo sapiens, UniProt Q9HBH9); type: functional
[15] = target: Mitogen-activated protein kinase kinase kinase kinase 4 (Homo sapiens, UniProt O95819); type: functional
[16] = target: Homeodomain-interacting protein kinase 2 (Homo sapiens, UniProt Q9H2X6); type: functional;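 further: measured within a kinome-wide kinase profiling panel, HIPK2 being one panel member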
[17] = target: Dual specificity protein kinase CLK4 (Homo sapiens, UniProt Q9HAZ1); type: functional
[18] = target: cAMP-dependent protein kinase catalytic subunit alpha (Homo sapiens, UniProt P17612); type: functional
[19] = target: Serine/threonine-protein kinase pim-1 (Homo sapiens, UniProt P11309); type: functional
[20] = target: Interleukin-1 receptor-associated kinase 4 (Homo sapiens, UniProt Q9NWZ3); type: functional
[21] = target: Cyclin-dependent kinase 5 (Homo sapiens, UniProt Q00535); type: functional;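 further: CDK5 measured as one member of a kinase profiling panel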
[22] = target: T6, Serine/threonine-protein kinase Chk1 (Homo sapiens, UniProt O14757); type: functional;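 further: measured as one member of a kinome-wide kinase profiling panel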
T6 sequence (O14757 whole entry): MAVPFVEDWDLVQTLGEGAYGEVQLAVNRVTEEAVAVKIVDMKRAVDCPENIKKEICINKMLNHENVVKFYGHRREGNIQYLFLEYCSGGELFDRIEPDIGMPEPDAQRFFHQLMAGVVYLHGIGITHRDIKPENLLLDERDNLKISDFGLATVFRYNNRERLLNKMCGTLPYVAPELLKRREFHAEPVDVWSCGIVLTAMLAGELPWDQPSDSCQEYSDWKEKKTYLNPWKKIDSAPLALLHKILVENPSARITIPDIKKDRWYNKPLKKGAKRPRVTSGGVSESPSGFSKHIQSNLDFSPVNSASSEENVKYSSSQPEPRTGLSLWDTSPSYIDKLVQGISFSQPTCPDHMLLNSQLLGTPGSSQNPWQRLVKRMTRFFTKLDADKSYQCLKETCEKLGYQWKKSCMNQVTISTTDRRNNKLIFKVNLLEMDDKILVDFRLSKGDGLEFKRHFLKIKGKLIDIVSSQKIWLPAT

LIM domain kinase 1 = LIM domain kinase 1 (Homo sapiens, UniProt P53667); experiment: Navigating the Kinome. Panel member name: LIMK1; type: functional
[23] = target: DNA dC->dU-editing enzyme APOBEC-3A (Homo sapiens, UniProt P31941); experiment: SAR analysis of small molecule inhibitors of APOBEC3A DNA Deaminase via a fluorescence-based single-stranded DNA deaminase assay.; type: functional; conditions: read-out: IC50_Mean
[24] = target: DNA dC->dU-editing enzyme APOBEC-3G (Homo sapiens, UniProt Q9HC16); experiment: APOBEC3G deaminase inhibitors, SAR follow-up, biochemical, fluorescence, single-stranded DNA substrate (AID 602136); type: functional; conditions: read-out: IC50_Mean
[25] = target: 26S proteasome non-ATPase regulatory subunit 14 (Homo sapiens, UniProt O00487); experiment: inhibition of proteasome subunit RPN11 – biochemical, fluorescence polarization, uHTS hits, confirmation (AID 602368); type: functional
[26] = target: 72 kDa type IV collagenase (Homo sapiens, UniProt P08253); experiment: Dose Response validation of uHTS RPN11 inhibitor hits using a MMP-2 Fluorescence assay.; type: functional
[27] = target: T7, Zinc finger protein mex-5 (Caenorhabditis elegans, UniProt Q9XUB2); experiment: MEX-5/TCR-2 RNA interaction inhibitors, dose response, biochemical, C. elegans, fluorescence polarization (AID 1960)
T7 sequence (Q9XUB2 whole entry): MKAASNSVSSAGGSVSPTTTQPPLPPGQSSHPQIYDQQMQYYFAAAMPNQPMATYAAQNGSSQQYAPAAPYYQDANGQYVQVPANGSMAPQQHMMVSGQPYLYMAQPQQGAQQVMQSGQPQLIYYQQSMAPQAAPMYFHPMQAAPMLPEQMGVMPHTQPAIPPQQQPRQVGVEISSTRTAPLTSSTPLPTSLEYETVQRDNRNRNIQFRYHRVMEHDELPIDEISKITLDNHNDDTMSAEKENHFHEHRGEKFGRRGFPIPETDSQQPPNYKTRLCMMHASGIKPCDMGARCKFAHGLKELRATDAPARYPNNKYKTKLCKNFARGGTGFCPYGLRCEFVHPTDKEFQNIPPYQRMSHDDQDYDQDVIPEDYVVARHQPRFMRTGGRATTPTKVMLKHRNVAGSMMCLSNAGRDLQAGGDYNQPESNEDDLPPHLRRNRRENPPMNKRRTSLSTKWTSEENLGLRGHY

Prothrombin = Prothrombin (Bos taurus, UniProt P00735); experiment: thrombin inhibition, dose response, biochemical, fluorescence polarization, uHTS hits (AID 602369); type: functional
[28] = target: T8, RNA-binding protein pos-1 (Caenorhabditis elegans, UniProt G5EF15); experiment: inhibitors of POS-1/mex-3 RNA binding, dose response, biochemical, fluorescence polarization (AID 1964);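 further: purified POS-1 fused to maltose binding protein made in E. coli; potency of compounds blocking POS-1 binding to fluorescent RNA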
T8 sequence (G5EF15 whole entry): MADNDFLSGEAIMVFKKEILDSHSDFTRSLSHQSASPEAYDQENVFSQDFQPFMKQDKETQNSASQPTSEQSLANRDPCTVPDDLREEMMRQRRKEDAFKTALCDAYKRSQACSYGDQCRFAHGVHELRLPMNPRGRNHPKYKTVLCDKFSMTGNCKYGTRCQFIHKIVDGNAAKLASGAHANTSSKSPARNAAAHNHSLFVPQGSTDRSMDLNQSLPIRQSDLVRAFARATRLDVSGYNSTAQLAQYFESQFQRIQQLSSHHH

T2 sequence (O43613 whole entry): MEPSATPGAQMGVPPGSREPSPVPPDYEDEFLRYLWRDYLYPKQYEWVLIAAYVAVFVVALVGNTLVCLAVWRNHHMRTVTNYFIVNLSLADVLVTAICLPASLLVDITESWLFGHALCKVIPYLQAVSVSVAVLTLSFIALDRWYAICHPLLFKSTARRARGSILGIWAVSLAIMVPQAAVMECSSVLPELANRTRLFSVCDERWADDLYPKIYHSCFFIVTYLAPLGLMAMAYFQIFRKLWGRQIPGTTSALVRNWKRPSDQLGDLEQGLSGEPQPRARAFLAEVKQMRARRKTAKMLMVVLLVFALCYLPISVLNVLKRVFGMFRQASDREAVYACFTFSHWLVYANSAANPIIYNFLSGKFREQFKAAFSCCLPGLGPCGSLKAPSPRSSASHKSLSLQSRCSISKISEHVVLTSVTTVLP
T1 sequence (O43614 whole entry): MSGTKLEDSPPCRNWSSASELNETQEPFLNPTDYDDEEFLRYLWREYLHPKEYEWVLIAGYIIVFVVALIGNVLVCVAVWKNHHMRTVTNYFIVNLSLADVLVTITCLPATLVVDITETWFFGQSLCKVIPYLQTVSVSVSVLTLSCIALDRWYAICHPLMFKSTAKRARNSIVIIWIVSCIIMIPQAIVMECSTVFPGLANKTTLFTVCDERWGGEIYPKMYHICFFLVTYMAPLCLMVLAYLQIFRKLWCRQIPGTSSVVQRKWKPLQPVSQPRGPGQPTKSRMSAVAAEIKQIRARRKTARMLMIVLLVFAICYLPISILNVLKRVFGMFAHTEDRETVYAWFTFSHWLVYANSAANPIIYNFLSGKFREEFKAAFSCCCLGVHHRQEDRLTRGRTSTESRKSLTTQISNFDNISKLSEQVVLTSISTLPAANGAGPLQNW
T5 sequence (P49841 whole entry): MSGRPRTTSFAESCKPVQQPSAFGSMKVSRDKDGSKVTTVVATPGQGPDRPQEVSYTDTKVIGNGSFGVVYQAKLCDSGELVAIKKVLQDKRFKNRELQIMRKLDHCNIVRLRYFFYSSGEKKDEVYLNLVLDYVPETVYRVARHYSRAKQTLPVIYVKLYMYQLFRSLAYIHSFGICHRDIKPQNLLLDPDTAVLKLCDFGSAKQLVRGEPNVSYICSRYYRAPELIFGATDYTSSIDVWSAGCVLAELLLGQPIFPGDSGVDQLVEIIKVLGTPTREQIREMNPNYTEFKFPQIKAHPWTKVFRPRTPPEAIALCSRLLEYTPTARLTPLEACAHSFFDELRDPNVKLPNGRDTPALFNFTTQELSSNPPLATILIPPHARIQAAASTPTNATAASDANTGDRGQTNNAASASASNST
Chain of Dual specificity protein kinase CLK4 (Q9HAZ1 whole entry): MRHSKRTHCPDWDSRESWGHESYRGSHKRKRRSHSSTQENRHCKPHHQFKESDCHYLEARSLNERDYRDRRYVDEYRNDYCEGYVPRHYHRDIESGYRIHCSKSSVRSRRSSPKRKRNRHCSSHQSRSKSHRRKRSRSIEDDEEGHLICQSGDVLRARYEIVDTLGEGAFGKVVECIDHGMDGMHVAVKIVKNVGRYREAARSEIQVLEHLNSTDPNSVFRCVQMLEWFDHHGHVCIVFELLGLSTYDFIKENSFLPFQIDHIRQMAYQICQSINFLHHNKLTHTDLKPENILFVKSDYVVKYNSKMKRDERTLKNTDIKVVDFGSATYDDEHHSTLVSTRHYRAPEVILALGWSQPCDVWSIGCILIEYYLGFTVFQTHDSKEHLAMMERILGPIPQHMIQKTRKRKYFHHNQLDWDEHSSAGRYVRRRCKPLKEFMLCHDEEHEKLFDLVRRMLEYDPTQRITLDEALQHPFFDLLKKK
Chain of LIM domain kinase 1 (P53667 whole entry, the tested form may be a part): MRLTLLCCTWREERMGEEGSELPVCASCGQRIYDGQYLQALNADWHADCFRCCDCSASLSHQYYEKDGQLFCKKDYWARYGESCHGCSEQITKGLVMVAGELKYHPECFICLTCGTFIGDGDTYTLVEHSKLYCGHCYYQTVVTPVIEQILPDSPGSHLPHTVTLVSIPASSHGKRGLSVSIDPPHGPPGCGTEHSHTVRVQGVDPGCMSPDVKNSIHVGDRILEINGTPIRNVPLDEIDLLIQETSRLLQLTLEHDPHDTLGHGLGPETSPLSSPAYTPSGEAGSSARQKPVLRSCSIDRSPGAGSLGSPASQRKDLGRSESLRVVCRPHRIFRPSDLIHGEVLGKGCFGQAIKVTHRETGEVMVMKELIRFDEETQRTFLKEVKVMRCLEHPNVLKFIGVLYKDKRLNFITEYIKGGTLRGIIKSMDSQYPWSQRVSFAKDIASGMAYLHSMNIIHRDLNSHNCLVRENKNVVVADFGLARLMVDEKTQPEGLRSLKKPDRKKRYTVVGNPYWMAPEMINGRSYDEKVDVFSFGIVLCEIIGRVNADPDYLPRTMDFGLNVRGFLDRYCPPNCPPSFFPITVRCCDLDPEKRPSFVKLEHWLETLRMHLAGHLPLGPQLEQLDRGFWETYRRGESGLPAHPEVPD
Chain of 26S proteasome non-ATPase regulatory subunit 14 (O00487 whole entry): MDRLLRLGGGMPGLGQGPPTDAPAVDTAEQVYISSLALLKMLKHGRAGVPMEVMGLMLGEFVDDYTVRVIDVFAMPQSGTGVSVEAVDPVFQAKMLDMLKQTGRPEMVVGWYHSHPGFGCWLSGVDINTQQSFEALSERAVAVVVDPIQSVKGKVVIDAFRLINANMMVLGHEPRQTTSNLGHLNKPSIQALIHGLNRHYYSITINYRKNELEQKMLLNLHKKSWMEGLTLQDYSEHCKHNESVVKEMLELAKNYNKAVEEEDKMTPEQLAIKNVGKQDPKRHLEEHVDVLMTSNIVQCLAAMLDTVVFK
Chain of Cell division cycle 7-related protein kinase (O00311 whole entry): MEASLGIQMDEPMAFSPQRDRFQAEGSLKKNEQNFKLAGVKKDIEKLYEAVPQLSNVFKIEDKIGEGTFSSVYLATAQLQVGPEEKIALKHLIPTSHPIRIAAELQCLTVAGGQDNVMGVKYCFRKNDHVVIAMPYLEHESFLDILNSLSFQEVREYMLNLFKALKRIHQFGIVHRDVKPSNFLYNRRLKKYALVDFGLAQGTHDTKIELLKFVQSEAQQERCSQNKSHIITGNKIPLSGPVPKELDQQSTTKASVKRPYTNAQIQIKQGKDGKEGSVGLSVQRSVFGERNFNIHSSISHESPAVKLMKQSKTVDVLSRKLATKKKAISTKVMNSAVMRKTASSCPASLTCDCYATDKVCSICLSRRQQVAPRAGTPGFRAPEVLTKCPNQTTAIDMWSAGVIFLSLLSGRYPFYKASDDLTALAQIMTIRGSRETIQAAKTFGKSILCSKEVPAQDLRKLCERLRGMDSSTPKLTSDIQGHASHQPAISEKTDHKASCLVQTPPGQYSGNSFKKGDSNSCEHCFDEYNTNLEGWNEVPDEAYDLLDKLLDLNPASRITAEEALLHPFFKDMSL
Chain of MAP kinase-interacting serine/threonine-protein kinase 2 (Q9HBH9 whole entry): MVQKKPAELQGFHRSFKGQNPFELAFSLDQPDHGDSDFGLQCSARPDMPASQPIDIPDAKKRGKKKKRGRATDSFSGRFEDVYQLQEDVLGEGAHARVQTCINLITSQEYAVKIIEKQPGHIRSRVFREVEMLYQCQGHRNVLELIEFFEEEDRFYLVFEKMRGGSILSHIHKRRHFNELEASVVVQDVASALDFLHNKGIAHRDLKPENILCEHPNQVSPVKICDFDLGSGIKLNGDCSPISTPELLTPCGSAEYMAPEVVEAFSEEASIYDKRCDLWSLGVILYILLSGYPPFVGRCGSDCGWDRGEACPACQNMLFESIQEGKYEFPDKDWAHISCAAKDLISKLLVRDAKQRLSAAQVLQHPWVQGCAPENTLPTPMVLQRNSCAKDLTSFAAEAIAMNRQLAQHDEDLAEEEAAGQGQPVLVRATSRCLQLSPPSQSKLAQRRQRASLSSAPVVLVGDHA
Chain of Glycogen synthase kinase-3 alpha (P49840 whole entry): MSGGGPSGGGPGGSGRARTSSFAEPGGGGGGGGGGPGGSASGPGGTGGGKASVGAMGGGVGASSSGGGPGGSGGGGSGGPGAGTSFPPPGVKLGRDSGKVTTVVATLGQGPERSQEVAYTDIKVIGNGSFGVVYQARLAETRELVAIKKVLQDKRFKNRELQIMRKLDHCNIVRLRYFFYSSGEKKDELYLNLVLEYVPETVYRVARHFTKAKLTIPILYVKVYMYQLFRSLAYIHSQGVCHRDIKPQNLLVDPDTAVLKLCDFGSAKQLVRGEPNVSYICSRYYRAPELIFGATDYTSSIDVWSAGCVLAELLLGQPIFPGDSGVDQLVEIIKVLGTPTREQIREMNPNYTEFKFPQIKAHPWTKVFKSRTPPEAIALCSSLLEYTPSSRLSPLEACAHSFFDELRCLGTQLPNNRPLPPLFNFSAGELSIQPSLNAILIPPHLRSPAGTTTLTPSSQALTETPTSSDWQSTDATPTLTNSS
Chain of 72 kDa type IV collagenase (P08253 whole entry): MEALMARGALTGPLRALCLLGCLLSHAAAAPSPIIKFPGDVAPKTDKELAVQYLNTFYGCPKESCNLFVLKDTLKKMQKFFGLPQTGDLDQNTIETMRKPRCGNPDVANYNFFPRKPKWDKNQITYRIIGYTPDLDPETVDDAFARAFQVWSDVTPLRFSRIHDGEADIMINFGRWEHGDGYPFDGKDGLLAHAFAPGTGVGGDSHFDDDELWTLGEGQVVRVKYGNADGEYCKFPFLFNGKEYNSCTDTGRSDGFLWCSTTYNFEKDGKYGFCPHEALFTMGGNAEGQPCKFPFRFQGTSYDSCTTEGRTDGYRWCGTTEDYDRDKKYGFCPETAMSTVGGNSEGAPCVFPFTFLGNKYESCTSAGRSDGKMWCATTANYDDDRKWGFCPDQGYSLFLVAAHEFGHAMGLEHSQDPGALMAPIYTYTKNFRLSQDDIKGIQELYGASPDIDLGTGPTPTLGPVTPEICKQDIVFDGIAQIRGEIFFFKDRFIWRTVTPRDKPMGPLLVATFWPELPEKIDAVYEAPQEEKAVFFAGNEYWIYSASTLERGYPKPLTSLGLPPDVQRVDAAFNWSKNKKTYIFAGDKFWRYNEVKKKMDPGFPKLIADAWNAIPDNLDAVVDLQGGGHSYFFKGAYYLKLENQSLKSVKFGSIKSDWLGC

## CCc1cc2c(SCC(=O)N(CC)c3c(N)n(Cc4ccccc4)c(=O)[nH]c3=O)ncnc2s1
Orexin receptor type 2 [1]
  IC50: 31500 nM (inactive)
CHO-K1
  IC50: > 66200 nM (inactive)
[2]
  IC50: > 49800 nM (inactive)
[3]
  IC50: 340 nM (active)
Orexin receptor type 2 [4]
  IC50: 1710 nM (active)
[5]
  IC50: 6120 nM (active)

## c1ccc(Cn2c[n+](Cc3ccccc3)c3ccccc32)cc1
[6]
  EC50: 5760 nM (active)

## Nc1nc(Nc2ccccc2)nc(NC2CCCCC2)c1[N+](=O)[O-]
Streptokinase A
  EC50: > 150000 nM (not active)
[7]
  AC50: 4620 nM (active)
[8]
  AC50: 1040 nM (active)
[9]
  EC50: 6850 nM (active)
[10]
  AC50: 2360 nM (active)
Streptococcus
  EC50: 8070 nM (active)
[11]
  AC50: 2600 nM (active)

## CC(C)(Nc1nccc(-c2c[nH]c3ncccc23)n1)c1ccccc1
[12]
  Ki: 20 nM (active)
[13]
  Ki: 126 nM (active)
[14]
  Ki: 25.1 nM (active)
[15]
  Ki: 15.8 nM (active)
[16]
  Ki: 316 nM (active)
[17]
  Ki: 3.16 nM (active)
[18]
  Ki: 12.6 nM (active)
[19]
  Ki: 1260 nM (active)
[20]
  Ki: 15.8 nM (active)

## O=[N+]([O-])c1ccc2[nH]c(-c3ccco3)nc2c1
[21]
  Ki: 2510 nM (active)
[22]
  Ki: 2510 nM (active)
LIM domain kinase 1
  Ki: 3160 nM (active)
[17]
  Ki: 1580 nM (active)

## CCn1c(=O)c2ccccc2n2c(COc3ccc4c(C(F)(F)F)cc(=O)oc4c3)nnc12
[23]
  IC50: > 99000 nM (inactive)
[24]
  IC50: > 99000 nM (inactive)

## O=C(N/N=C/c1ccc(-c2ccc([N+](=O)[O-])cc2)o1)c1cccnc1
[25]
  IC50: 28600 nM (active)
[26]
  IC50: > 100000 nM (inactive)
[27]
  EC50: 27400 nM (active)
Prothrombin
  IC50: 19800 nM (active)
[28]
  EC50: > 300000 nM (not active)
